Here are results for 9 compounds from ChEMBL document CHEMBL1125176, “Synthesis of structural analogues of lyngbyatoxin A and their evaluation as activators of protein kinase C” (J Med Chem, 1991).

The assay deals with Protein kinase C (PKC) (Homo sapiens) (UniProt O94806+P41743+P17252+P05129+Q05655+P05771+Q05513+Q02156+P24723+Q15139+Q04759). As to the kind of experiment: Activation of partially purified HeLa cell protein kinase C, 32P incorporation into calf thymus histone(III-S).

`CC(C)=CCCCc1ccc2c3c(c[nH]c13)C[C@@H](CO)NC(=O)[C@H](C(C)C)N2C` showed an Activity (pM min-1 (mg of protein)-1) of 763. The result for `CC(C)[C@H]1C(=O)N[C@@H](CO)Cc2c[nH]c3c(CCCCO[Si](C)(C)C(C)(C)C)ccc(c23)N1C` reads 403. The figure for `CCCCCCCCCCCCCC(=O)O[C@@H]1[C@@H](C)[C@@]2(O)[C@@H](C=C(CO)C[C@]3(O)C(=O)C(C)=C[C@@H]23)[C@@H]2C(C)(C)[C@]12OC(C)=O` is 899.

For `CC(C)[C@H]1C(=O)N[C@H](CO)Cc2c[nH]c3cccc(c23)N1C`, the Activity (pM min-1 (mg of protein)-1) turned out to be 454. `CC(C)[C@H]1C(=O)N[C@H](CO)Cc2c[nH]c3c(CCCCO)ccc(c23)N1C`: the Activity (pM min-1 (mg of protein)-1) is 256. The result for `CC(C)=CCCCc1ccc2c3c(c[nH]c13)C[C@H](CO)NC(=O)[C@H](C(C)C)N2C` reads 415.

As for `CC(C)[C@H]1C(=O)N[C@@H](CO)Cc2c[nH]c3c(CCCCO)ccc(c23)N1C`, the Activity (pM min-1 (mg of protein)-1) worked out at 163.

Compound `CC(C)[C@H]1C(=O)N[C@H](CO)Cc2c[nH]c3c(CCCCO[Si](C)(C)C(C)(C)C)ccc(c23)N1C` returned an Activity (pM min-1 (mg of protein)-1) of 703. The figure for `CCCCCCc1ccc2c3c(c[nH]c13)C[C@@H](CO)NC(=O)[C@H](C(C)C)N2C` is 606.
